From a melting point compilation (Tetko et al.; mined from patent text by program, amines drawn as free bases though some values may be those of a salt)

melting point | Compound
107 to 109 °C | CC1(C)OCCN1C(=O)C=Cc1ccccc1
179 to 181 °C | Oc1cc(Br)cc(-c2ccc3nonc3c2)c1
289 °C | CN=C(NC#N)Nc1ccc2c(c1)CCC1CC(=O)NN=C21 (configuration not stated)
173 to 176 °C | CC(C)n1c2c(c(-c3ccccc3)nc1=O)CCCCCCCCCC2
207 to 210 °C | Cc1[nH]c2ccccc2c1Cc1cccnc1
90 to 96 °C | CCOC(=O)COc1ccc(Cn2c(-c3ccc(OC)cc3)c(C)c3cc(OCc4ccccc4)ccc32)cc1
67 to 70 °C | COC(=O)C(C)Oc1ccc(NC(=O)COCc2ccccc2)cc1 (configuration not stated)
> 275 °C | COC(=O)CCc1ccc(N2CCN(c3ccc(CN)cc3C)C2=O)cc1
190 to 191 °C | CNc1c(NCCCCc2ncc(Br)cc2C)c(=O)c1=O
206 °C | CC(C)C(c1ccc(N)c([N+](=O)[O-])c1)n1cncn1 (configuration not stated)
231 to 232 °C | Cc1nc(-c2cnn(-c3c(Cl)cc(C(F)(F)F)cc3Cl)n2)[nH]c1[N+](=O)[O-]
145 to 147 °C | CC(C)c1c(/C=C/I)c(-c2ccc(F)cc2)nc2ccccc12
100 to 103 °C | C#CC1=Cc2cc(Cl)ccc2Sc2ccc(SC)cc21
152 to 153 °C | CCOC(=O)C(=O)CC(=O)c1cn(Cc2ccc(F)cc2)c2ccc(F)cc2c1=O
54 to 56 °C | Cc1csc(N=CN(C)C)n1
80.5 to 82.4 °C | CC(=O)c1cc(S(=O)(=O)c2ccccc2)ccc1OCc1ccccc1
246 to 248 °C | CC1(C)CC(=O)C2=C(C1)NC1=C(C(=O)CC(C)(C)C1)C2c1ccc(Cl)c(Oc2ccccc2)c1
73 to 75 °C | COCOc1ccc(C=CC(C)=O)cc1OC
140 to 142 °C | CC(=O)c1cc(N2CCOCC2)ccc1NC(=O)c1cccc(OCc2ccccc2)c1
95 to 97 °C | COc1ccc2c(c1)CCC1C2=CCC2(C)C(O)CCC12 (configuration not stated)
86 to 88 °C | CCOC(=O)C1=C(C)N=C(SCc2ccc(OC)cc2)N(S(=O)(=O)c2ccccc2)C1c1cccc([N+](=O)[O-])c1 (configuration not stated)
77 to 80 °C | CC(=O)Oc1ccc2c(c1)CC=C1C2CCC2(C)C=CCC12 (configuration not stated)
49 to 50 °C | CCCCCCCCCCCCCCOc1cccc(CO)c1
290 to 291 °C | CCOC(=O)c1c(-c2ccccc2C)c2cc(C)c(Cl)cc2[nH]c1=O

melting point | Compound
92 to 104 °C | COc1c(Nc2ncc(Cl)c(Nc3ccccc3S(=O)(=O)N(C)C)n2)ccc2c1CC(N1CCOCC1)CCC2 (configuration not stated)
94 to 96 °C | COc1cc(C#N)c(N=C(C)N(C)C)cc1OC
156 to 158 °C | Cc1cc(C)c2cccc(OCc3c(Cl)ccc(S(=O)(=O)N4CCC[C@H]4C(=O)N4CCN(S(=O)(=O)c5ccc(C#N)cc5)CC4)c3Cl)c2n1
78 to 81 °C | C[Si](C)(C)CCCCOC(=O)CSc1cc(Oc2ccc(C(F)(F)F)cc2Cl)ccc1[N+](=O)[O-]
43 to 49 °C | CCCC(C(=O)OCC)N1CC(COc2cccc(Cl)c2)OC1=O (configuration not stated)
63 to 68 °C | Cc1nn(C)c(O)c1C(=O)c1ccc(Cl)c(OCCn2cnnn2)c1Cl
168 °C | CCCCS(=O)(=O)Nc1ccc(Oc2ccc3cccnc3c2)cc1
186 to 187 °C | Nc1ncc2c(n1)-c1ccc(-c3ccccc3)cc1C(c1ccc(Cl)c(Cl)c1)C2 (configuration not stated)
132 to 133 °C | O=C(O)Cc1ccc(-n2cc(Cl)cn2)c(Cl)c1
161 to 162 °C | O=C(NCCN1CCC(Oc2ccc(Cl)c(Cl)c2)CC1)c1nnc(Nc2ccccc2Cl)o1
169 °C | O=c1c(Cl)c(N2CCC(c3ccccc3)CC2)ccn1Cc1ccc(OC(F)(F)F)cc1
76 to 79 °C | O=C(NCCCc1ccncc1)N1CCc2ccccc2C1
105 to 106 °C | CCOC(=O)/C=C/c1cc(OCc2cn(-c3ccc(C(F)(F)F)cn3)nc2C(C)C)nn1C
229 to 231 °C | Cc1ccc(-c2ccc3c(c2)C=C(C(=O)Nc2ccc(CN(C)C4CCOCC4)cc2)CCS3(=O)=O)s1
170 to 176 °C | CC(=O)C(=Cc1cc(O)c(O)c([N+](=O)[O-])c1)c1ccccc1
152 to 153 °C | Oc1ccc(-c2nc(-c3cccs3)c[nH]2)cc1Cl
148 °C | CCc1cc2[nH]c(=O)oc2cc1NCC1CCCOC1 (configuration not stated)
66 to 68 °C | CCCCCOC1CCN(S(=O)(=O)C=Cc2ccccc2)C1=O (configuration not stated)
> 260 °C | Cc1nc2c(c(=O)[nH]1)-c1cc(S(=O)(=O)Nc3ccc(F)cc3)ccc1CC2
136 to 137 °C | CC/C(=C\C=C\C(=O)O)c1ccc(OC)cc1
133 to 140 °C | COC(=O)c1ccccc1NC(=S)c1ccc(OC)nc1
48 to 48.5 °C | CCOC(=O)c1cc(C)c(C(=O)OCC)n1C
190 °C | CC(C)N1C(=O)c2cccnc2NS1(=O)=O
230 to 232 °C | CN(c1cccc2cc(C3=NCC(C(N)=O)S3)[nH]c12)S(=O)(=O)c1cccs1 (configuration not stated)

melting point | Compound
177 to 180 °C | CCOC(=O)c1cn(CC)c2cc(NC(C)=O)c(F)cc2c1=O
191 to 193 °C | CN1CCN(Cc2c(-c3ccc4sc(=O)n(C)c4c3)nc3ccccn23)CC1
185 to 186 °C | COc1ccc2sc3c(c2c1)OC(C)CNC3=O (configuration not stated)
118 to 120 °C | O=S1NC(CC2=Cc3ccccc3CC2)=NO1 (configuration not stated)
> 300 °C | O=c1c(-c2ccc(Cl)cc2)c2c(cn1CO)Sc1ccccc1N2
80 to 82 °C | O=C(O)CCc1ccc(O)c([N+](=O)[O-])c1
92 to 93 °C | CCCC(CCC)n1nnc2c(Cl)nc(C)nc21
150 to 151 °C | c1cc(CN2CCCCC2)cc(OCCCNc2nnc3ccccn23)c1
143 to 145 °C | CCOC(=O)c1cc2cccc(N(C)S(=O)(=O)c3cccs3)c2n1COC
110 to 112 °C | COc1ccc2c(c1)NCc1ccccc1O2
148 to 149 °C | Fc1ccc2c(CN3CCN(CCc4ccccc4)CC3)n[nH]c2c1
131 to 132 °C | N#Cc1ccc(N2CC(C(=O)N3CCN(CC(=O)OCc4ccccc4)CC3)OC2=O)cc1 (configuration not stated)
175 to 177 °C | COc1nc(Cl)cnc1N(C(=O)OCC(C)C)S(=O)(=O)c1ccccc1-c1ccc(O)cc1
153 to 154 °C | CCCCCCCCC(O)C(O)CCCCCCCCCCCC(N)=O (configuration not stated)
79 to 81 °C | NCc1cccc(O)c1
< -70 °C | CO[Si](OC)(OC)O[Si](OC)(OC)O[Si](OC)(OC)OC
98 to 100 °C | C=CCNC(=O)c1ccc([N+](=O)[O-])cc1Br
168 to 169 °C | Cc1ccc(C=NNC(=O)OC(C)(C)C)cc1C
114 to 116 °C | O=C(c1cc([N+](=O)[O-])ccc1Cl)c1sccc1Cl
185 °C | O=C(O)c1ccc(Oc2ccc(Oc3ccccc3)cc2)cc1
256 to 258 °C | O=C1Nc2ccccc2Sc2c1cccc2C(F)(F)F
230 °C | O=C1c2ccccc2C(=O)N1CC(=O)N(CC(=O)N1CCc2ccccc21)c1ccccc1
142 to 145 °C | OCC1CCC(n2cnc3cc(Cl)c(Cl)cc32)C1 (configuration not stated)
125 to 127 °C | COc1cc2c(cc1OC(C)C)-c1cc3c(n1CC2)C(=O)N(C(C)(C)C)CCOC3

melting point | Compound
117 to 119 °C | CCCCCCCC[C@H](O)[C@H](O)[C@H]1CCC(=O)O1
271 to 274 °C | CCn1cc(C(=O)O)c(=O)c2cc(F)c(N3CCC(CNC4CC4)C3)nc21 (configuration not stated)
80 to 82 °C | CCCCCCNc1nc(Cl)nc2c(SC)ncnc12
> 260 °C | O=C(NC12CC3CC(CC(C3)C1)C2)n1cc(F)c(=O)[nH]c1=O
163 to 164 °C | CCCn1c(COCC)nc2c(N)nc3cc(OC4CCN(C(=O)NC(C)C)CC4)ccc3c21
140 to 142 °C | O=C(O)c1ccccc1-c1ccc(CO)cc1
185 to 187 °C | COC(=O)c1ccc(OCC(N)=O)c([N+](=O)[O-])c1
70 to 72 °C | COC(=O)c1ccc(OCCNC(=O)C2Cc3ccccc3N2S(=O)(=O)c2ccc(-c3ccc(F)cc3)cc2)cc1 (configuration not stated)
85 to 86 °C | CC1OC(n2c(Br)nc3cc(Cl)c(Cl)cc32)C(O)C1O (configuration not stated)
134 to 137 °C | COc1cc2c(cc1OCc1ccccc1)C(c1ccccc1)=NCC2
100 °C | N#Cc1cccc(C=CC=O)c1
132 to 134 °C | CC(C)CNc1cccnc1N1CCN(C(=O)c2ccc(C(=O)NC(C)C)cn2)CC1
178 to 180 °C | Cc1ccc(-c2c(N)ncnc2OCCOc2ncc(Br)cn2)cc1
130 to 132 °C | N#Cc1cccc(Oc2ccc(CBr)cc2)c1C#N
170 to 171 °C | COc1cccc2c1C(=O)c1c(OC)cc(C(=O)N(C)OCc3ccccc3)cc1C2=O
100 to 105 °C | COc1c(C(C)=O)cnc2c([N+](=O)[O-])cccc12
112 to 114 °C | CC(=O)OCC(OC(C)=O)C(OC(C)=O)C(OC(C)=O)C(C=O)OC(C)=O (configuration not stated)
242 to 243 °C | CCOC(=O)c1cc2c3ccccc3[nH]c(=S)n2n1
131 to 133 °C | Cc1cccc(C(=O)NCN2CCN(c3ccccc3C#N)CC2)c1
165 to 167 °C | CCS(=O)(=O)N(C)[C@@H]1c2cc(OCc3ccccc3)ccc2OC(C)(C)[C@H]1O
98 °C | COc1ccc(C2(O)CCN(C(=O)OCc3ccccc3)CC2)cc1
148 °C | CNS(=O)(=O)c1cccc(-c2ccc3cccc(N4CCN(C)CC4)c3c2)c1
190 to 192 °C | CC=CCn1c(Nc2cc(C)cc(C)c2)c(CC)c(=O)[nH]c1=O
70 °C | CC(C)(C)OC(=O)CNc1ccccc1F

Compound | melting point
O=C(OCc1ccccc1Cl)c1ncn2c1[C@@H]1CCCN1C(=O)c1c(Cl)cccc1-2 | 192 to 193 °C
O=C(Nc1cc(C(F)(F)F)on1)C(Cl)(Cl)Cl | 114 °C
CNC(=O)ON=C1N=C(c2ccccc2)C(C)(C)S1 | 135 to 137 °C
CCN1C(=O)N(c2ccc(C#N)c(C(F)(F)F)c2)C(=O)C1(CF)CF | 129 to 130 °C
Cc1cc(C2=NOC(c3cc(Cl)cc(Cl)c3)(C(F)(F)F)C2)ccc1C(=O)NCO (configuration not stated) | 69 to 73.5 °C
C=CCN1C2CCC1C1CCC2N1C(c1ccc(C(=O)N2CCCCC2)cc1)c1cccc(O)c1 (configuration not stated) | 133 to 135 °C
